Experimental data reported in article PMC8371461 (Frontiers in Pharmacology, 2021).

Tests used:
CSNK2A1 = target: T1, CSNK2A1 (Homo sapiens, UniProt P68400); assay: kinome scan; assay type: binding; details: 10 µM
T1 construct: purchased DiscoverX (KINOMEscan)

FLT3(D835H) = target: T2, FLT3(D835H) (Homo sapiens, UniProt P36888, D835H); assay: kinome scan; assay type: binding; details: 10 µM
T2 construct: purchased DiscoverX (KINOMEscan)

BRAF(V600E) = target: T3, BRAF(V600E) (Homo sapiens, UniProt P15056, V600E); assay: kinome scan; assay type: binding; details: 10 µM
T3 construct: purchased DiscoverX (KINOMEscan)

ULK3 = target: T4, ULK3 (Homo sapiens, UniProt Q6PHR2); assay: kinome scan; assay type: binding; details: 10 µM
T4 construct: purchased DiscoverX (KINOMEscan)

FGFR1 = target: T5, FGFR1 (Homo sapiens, UniProt P11362); assay: kinome scan; assay type: binding; details: 10 µM
T5 construct: purchased DiscoverX (KINOMEscan)

ACVRL1 = target: T6, ACVRL1 (Homo sapiens, UniProt P37023); assay: kinome scan; assay type: binding; details: 10 µM
T6 construct: purchased DiscoverX (KINOMEscan)

NEK11 = target: T7, NEK11 (Homo sapiens, UniProt Q8NG66); assay: kinome scan; assay type: binding; details: 10 µM
T7 construct: purchased DiscoverX (KINOMEscan)
T7 sequence (Q8NG66 whole entry): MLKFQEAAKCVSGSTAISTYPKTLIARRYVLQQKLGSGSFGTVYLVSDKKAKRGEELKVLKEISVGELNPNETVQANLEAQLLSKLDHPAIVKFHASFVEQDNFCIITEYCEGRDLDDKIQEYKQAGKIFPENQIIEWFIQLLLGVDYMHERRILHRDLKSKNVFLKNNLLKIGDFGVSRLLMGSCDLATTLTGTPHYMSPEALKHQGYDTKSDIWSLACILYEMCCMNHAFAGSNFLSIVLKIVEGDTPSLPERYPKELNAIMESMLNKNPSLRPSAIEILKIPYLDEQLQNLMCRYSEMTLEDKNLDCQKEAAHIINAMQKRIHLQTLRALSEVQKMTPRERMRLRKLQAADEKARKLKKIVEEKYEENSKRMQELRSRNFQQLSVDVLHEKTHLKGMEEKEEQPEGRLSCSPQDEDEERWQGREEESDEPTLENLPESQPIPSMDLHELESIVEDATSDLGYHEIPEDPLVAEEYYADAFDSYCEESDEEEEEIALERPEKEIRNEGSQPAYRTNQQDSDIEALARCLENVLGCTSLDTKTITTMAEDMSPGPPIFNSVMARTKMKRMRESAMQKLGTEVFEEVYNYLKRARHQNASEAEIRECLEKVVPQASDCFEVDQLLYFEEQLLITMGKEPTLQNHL

ASK1 = target: T8, ASK1 (Homo sapiens, UniProt Q99683); assay: kinome scan; assay type: binding; details: 10 µM
T8 construct: purchased DiscoverX (KINOMEscan)
T8 sequence (Q99683 whole entry): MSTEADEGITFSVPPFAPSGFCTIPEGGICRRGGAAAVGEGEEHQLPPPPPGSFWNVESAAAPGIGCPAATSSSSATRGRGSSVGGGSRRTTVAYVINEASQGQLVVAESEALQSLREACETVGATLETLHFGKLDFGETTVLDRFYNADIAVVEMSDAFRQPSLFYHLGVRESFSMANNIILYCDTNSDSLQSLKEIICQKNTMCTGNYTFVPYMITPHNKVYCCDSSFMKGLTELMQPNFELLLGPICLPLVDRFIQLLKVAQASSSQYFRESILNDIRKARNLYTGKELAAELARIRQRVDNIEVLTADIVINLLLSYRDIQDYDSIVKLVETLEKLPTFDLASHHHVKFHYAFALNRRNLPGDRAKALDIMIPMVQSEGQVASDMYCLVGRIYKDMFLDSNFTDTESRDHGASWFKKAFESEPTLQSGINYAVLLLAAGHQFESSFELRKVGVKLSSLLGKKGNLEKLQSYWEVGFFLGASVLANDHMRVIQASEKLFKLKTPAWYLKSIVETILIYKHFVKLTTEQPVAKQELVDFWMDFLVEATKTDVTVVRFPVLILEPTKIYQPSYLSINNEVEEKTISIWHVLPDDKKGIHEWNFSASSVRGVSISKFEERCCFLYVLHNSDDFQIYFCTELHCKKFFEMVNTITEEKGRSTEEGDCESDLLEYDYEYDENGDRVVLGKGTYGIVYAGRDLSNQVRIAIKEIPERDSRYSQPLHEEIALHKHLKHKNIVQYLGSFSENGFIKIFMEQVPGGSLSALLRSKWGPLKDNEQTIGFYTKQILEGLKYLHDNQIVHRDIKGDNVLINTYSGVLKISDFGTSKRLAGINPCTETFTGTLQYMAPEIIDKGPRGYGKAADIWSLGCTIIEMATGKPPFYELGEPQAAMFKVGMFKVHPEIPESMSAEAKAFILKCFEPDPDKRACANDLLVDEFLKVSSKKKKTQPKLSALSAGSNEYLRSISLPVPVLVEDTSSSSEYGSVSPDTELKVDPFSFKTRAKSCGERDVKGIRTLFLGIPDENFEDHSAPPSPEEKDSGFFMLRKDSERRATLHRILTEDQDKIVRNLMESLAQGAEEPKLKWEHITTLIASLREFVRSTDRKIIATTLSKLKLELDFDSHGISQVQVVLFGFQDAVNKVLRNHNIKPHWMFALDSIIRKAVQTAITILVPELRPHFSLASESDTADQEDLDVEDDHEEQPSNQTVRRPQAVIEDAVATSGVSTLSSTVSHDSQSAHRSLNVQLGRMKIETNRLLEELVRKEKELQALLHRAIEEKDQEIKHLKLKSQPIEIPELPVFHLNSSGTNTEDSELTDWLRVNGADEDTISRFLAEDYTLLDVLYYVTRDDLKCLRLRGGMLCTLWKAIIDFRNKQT

MAP4K4 = target: T9, MAP4K4 (Homo sapiens, UniProt O95819); assay: kinome scan; assay type: binding; details: 10 µM
T9 construct: purchased DiscoverX (KINOMEscan)

MET = target: T10, MET (Homo sapiens, UniProt P08581); assay: kinome scan; assay type: binding; details: 10 µM
T10 construct: purchased DiscoverX (KINOMEscan)

[1] = target: T11, ABL1(Q252H)-phosphorylated (Homo sapiens, UniProt P00519, Q252H); assay: kinome scan; assay type: binding; details: 10 µM
T11 construct: purchased DiscoverX (KINOMEscan)

ACVR1 = target: T12, ACVR1 (Homo sapiens, UniProt Q04771); assay: kinome scan; assay type: binding; details: 10 µM
T12 construct: purchased DiscoverX (KINOMEscan)

NEK5 = target: T13, NEK5 (Homo sapiens, UniProt Q6P3R8); assay: kinome scan; assay type: binding; details: 10 µM
T13 construct: purchased DiscoverX (KINOMEscan)

ERK3 = target: T14, ERK3 (Homo sapiens, UniProt Q16659); assay: kinome scan; assay type: binding; details: 10 µM
T14 construct: purchased DiscoverX (KINOMEscan)

[2] = target: T15, ABL1(F317L)-phosphorylated (Homo sapiens, UniProt P00519, F317L); assay: kinome scan; assay type: binding; details: 10 µM
T15 construct: purchased DiscoverX (KINOMEscan)

FAK = target: T16, FAK (Homo sapiens, UniProt Q05397); assay: kinome scan; assay type: binding; details: 10 µM
T16 construct: purchased DiscoverX (KINOMEscan)

IRAK3 = target: T17, IRAK3 (Homo sapiens, UniProt Q9Y616); assay: kinome scan; assay type: binding; details: 10 µM
T17 construct: purchased DiscoverX (KINOMEscan)

PRKD2 = target: T18, PRKD2 (Homo sapiens, UniProt Q9BZL6); assay: kinome scan; assay type: binding; details: 10 µM
T18 construct: purchased DiscoverX (KINOMEscan)

EPHB2 = target: T19, EPHB2 (Homo sapiens, UniProt P29323); assay: kinome scan; assay type: binding; details: 10 µM
T19 construct: purchased DiscoverX (KINOMEscan)

HCK = target: T20, HCK (Homo sapiens, UniProt P08631); assay: kinome scan; assay type: binding; details: 10 µM
T20 construct: purchased DiscoverX (KINOMEscan)

PLK4 = target: T21, PLK4 (Homo sapiens, UniProt O00444); assay: kinome scan; assay type: binding; details: 10 µM
T21 construct: purchased DiscoverX (KINOMEscan)
T21 sequence (O00444 whole entry): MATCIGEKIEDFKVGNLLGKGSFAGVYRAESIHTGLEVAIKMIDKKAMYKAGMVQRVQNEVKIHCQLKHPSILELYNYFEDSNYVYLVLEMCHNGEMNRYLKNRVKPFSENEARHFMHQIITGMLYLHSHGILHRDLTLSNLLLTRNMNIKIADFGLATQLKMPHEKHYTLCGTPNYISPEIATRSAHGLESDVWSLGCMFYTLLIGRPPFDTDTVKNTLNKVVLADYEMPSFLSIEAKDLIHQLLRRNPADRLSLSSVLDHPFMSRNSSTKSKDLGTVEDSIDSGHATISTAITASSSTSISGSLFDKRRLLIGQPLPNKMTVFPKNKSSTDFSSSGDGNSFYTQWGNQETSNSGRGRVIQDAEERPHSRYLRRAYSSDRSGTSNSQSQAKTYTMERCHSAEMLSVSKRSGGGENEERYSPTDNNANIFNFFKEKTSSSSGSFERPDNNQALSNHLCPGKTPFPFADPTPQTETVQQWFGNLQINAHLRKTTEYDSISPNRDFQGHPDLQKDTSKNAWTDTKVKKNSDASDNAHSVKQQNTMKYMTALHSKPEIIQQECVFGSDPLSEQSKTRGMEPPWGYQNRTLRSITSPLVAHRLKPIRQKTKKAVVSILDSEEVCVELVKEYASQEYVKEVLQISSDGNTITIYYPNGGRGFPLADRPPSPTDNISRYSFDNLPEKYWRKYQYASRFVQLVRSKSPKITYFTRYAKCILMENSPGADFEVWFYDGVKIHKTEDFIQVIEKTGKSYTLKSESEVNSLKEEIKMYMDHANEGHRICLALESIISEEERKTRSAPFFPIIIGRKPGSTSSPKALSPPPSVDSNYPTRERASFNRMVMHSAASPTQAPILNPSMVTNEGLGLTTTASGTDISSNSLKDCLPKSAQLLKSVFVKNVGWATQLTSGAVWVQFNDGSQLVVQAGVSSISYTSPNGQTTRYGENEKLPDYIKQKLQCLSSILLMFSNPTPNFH

STK39 = target: T22, STK39 (Homo sapiens, UniProt Q9UEW8); assay: kinome scan; assay type: binding; details: 10 µM
T22 construct: purchased DiscoverX (KINOMEscan)

Cruzain = test system: Cruzain; set-up: method as in CHEMBL1613769; details: reported activity, data mining; ref CHEMBL1613769; cited from earlier work
MST3 = target: T23, MST3 (Homo sapiens, UniProt Q9Y6E0); assay: kinome scan; assay type: binding; details: 10 µM
T23 construct: purchased DiscoverX (KINOMEscan)

PIK3CA(H1047Y) = target: T24, PIK3CA(H1047Y) (Homo sapiens, UniProt P42336, H1047Y); assay: kinome scan; assay type: binding; details: 10 µM
T24 construct: purchased DiscoverX (KINOMEscan)

GSK3B = target: T25, GSK3B (Homo sapiens, UniProt P49841); assay: kinome scan; assay type: binding; details: 10 µM
T25 construct: purchased DiscoverX (KINOMEscan)

MEK2 = target: T26, MEK2 (Homo sapiens, UniProt P36507); assay: kinome scan; assay type: binding; details: 10 µM
T26 construct: purchased DiscoverX (KINOMEscan)

MARK2 = target: T27, MARK2 (Homo sapiens, UniProt Q7KZI7); assay: kinome scan; assay type: binding; details: 10 µM
T27 construct: purchased DiscoverX (KINOMEscan)

GSK3A = target: T28, GSK3A (Homo sapiens, UniProt P49840); assay: kinome scan; assay type: binding; details: 10 µM
T28 construct: purchased DiscoverX (KINOMEscan)

TAOK2 = target: T29, TAOK2 (Homo sapiens, UniProt Q9UL54); assay: kinome scan; assay type: binding; details: 10 µM
T29 construct: purchased DiscoverX (KINOMEscan)

LATS2 = target: T30, LATS2 (Homo sapiens, UniProt Q9NRM7); assay: kinome scan; assay type: binding; details: 10 µM
T30 construct: purchased DiscoverX (KINOMEscan)

FLT4 = target: T31, FLT4 (Homo sapiens, UniProt P35916); assay: kinome scan; assay type: binding; details: 10 µM
T31 construct: purchased DiscoverX (KINOMEscan)

CDKL5 = target: T32, CDKL5 (Homo sapiens, UniProt O76039); assay: kinome scan; assay type: binding; details: 10 µM
T32 construct: purchased DiscoverX (KINOMEscan)

TNIK = target: T33, TNIK (Homo sapiens, UniProt Q9UKE5); assay: kinome scan; assay type: binding; details: 10 µM
T33 construct: purchased DiscoverX (KINOMEscan)

KIT = target: T34, KIT (Homo sapiens, UniProt P10721); assay: kinome scan; assay type: binding
T34 construct: purchased DiscoverX (KINOMEscan)
T34 sequence (P10721 26-976): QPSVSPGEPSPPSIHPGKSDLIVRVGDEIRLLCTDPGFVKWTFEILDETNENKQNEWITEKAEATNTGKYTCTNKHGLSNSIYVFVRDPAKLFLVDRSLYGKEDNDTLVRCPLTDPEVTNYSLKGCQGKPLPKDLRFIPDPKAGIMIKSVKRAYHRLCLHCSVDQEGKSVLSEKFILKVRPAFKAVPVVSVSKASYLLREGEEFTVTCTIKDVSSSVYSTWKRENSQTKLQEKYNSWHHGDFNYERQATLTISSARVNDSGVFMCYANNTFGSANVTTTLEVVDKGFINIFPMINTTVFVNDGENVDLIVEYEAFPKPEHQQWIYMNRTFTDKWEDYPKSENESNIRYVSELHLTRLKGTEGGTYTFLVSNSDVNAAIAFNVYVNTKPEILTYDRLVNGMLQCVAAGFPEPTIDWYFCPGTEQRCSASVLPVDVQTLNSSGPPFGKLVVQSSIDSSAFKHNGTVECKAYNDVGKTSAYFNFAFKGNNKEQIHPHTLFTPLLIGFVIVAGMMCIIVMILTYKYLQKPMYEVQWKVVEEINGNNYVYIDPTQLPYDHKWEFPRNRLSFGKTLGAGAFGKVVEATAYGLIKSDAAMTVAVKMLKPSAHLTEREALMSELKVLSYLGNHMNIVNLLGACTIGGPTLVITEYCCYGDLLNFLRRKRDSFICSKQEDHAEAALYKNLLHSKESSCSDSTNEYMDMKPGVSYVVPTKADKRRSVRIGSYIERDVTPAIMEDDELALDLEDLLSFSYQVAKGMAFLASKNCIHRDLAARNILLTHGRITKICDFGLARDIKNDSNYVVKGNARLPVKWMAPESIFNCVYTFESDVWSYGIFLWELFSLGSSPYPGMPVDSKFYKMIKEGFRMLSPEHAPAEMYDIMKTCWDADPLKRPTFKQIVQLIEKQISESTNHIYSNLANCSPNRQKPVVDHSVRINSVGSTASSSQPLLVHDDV

EPHB1 = target: T35, EPHB1 (Homo sapiens, UniProt P54762); assay: kinome scan; assay type: binding; details: 10 µM
T35 construct: purchased DiscoverX (KINOMEscan)
T35 sequence (P54762 18-984): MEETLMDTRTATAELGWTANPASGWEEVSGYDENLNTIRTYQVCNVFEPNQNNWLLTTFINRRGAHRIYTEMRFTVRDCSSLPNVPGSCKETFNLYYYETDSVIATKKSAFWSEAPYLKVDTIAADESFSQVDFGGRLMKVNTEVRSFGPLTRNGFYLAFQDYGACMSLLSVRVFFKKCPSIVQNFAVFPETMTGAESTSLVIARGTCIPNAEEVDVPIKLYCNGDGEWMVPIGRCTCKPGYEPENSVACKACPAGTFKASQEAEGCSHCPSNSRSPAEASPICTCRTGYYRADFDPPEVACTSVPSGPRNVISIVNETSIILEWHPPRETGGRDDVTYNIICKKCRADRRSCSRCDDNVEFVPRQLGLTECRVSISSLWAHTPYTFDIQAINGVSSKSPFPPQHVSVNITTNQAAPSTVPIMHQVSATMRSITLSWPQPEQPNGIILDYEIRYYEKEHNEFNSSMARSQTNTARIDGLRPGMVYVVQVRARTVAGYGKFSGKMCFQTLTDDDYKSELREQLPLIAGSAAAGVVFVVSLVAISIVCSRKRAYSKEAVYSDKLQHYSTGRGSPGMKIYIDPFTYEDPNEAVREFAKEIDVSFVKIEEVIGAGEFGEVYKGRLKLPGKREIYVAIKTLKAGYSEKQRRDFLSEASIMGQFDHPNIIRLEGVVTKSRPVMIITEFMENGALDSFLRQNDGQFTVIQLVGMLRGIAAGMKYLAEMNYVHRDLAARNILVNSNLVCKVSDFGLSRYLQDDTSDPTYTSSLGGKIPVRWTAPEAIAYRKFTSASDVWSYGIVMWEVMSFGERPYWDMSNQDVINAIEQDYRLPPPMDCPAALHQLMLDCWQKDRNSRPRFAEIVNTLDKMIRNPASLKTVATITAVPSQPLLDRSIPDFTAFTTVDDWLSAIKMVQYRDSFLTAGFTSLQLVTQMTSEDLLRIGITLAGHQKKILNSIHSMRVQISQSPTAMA

MET(Y1235D) = target: T36, MET(Y1235D) (Homo sapiens, UniProt P08581, Y1235D); assay: kinome scan; assay type: binding; details: 10 µM
T36 construct: purchased DiscoverX (KINOMEscan)

EPHA6 = target: T37, EPHA6 (Homo sapiens, UniProt Q9UF33); assay: kinome scan; assay type: binding; details: 10 µM
T37 construct: purchased DiscoverX (KINOMEscan)

MAP3K2 = target: T38, MAP3K2 (Homo sapiens, UniProt Q9Y2U5); assay: kinome scan; assay type: binding; details: 10 µM
T38 construct: purchased DiscoverX (KINOMEscan)

[3] = target: T39, ABL1(Y253F)-phosphorylated (Homo sapiens, UniProt P00519, Y253F); assay: kinome scan; assay type: binding; details: 10 µM
T39 construct: purchased DiscoverX (KINOMEscan)

LOK = target: T40, LOK (Homo sapiens, UniProt O94804); assay: kinome scan; assay type: binding; details: 10 µM
T40 construct: purchased DiscoverX (KINOMEscan)

PKAC-beta = target: T41, PKAC-beta (Homo sapiens, UniProt P22694); assay: kinome scan; assay type: binding; details: 10 µM
T41 construct: purchased DiscoverX (KINOMEscan)

MKK7 = target: T42, MKK7 (Homo sapiens, UniProt O14733); assay: kinome scan; assay type: binding; details: 10 µM
T42 construct: purchased DiscoverX (KINOMEscan)

Structure (SMILES): Nc1ccc(N=Nc2ccccc2)c(N)n1 [phenazopyridine, 2,6-diamino-3-(phenylazo)pyridine]
- kinase inhibition (CSNK2A1): 86
- remaining binding (% of control) (FLT3(D835H)): 81
- kinase inhibition (BRAF(V600E)): 92
- kinase inhibition (ULK3): 100
- kinase inhibition (FGFR1): 100
- kinase inhibition (ACVRL1): 71
- kinase inhibition (NEK11): 100
- kinase inhibition (ASK1): 100
- kinase inhibition (MAP4K4): 100
- kinase inhibition (MET): 100
- kinase inhibition [1]: 100
- kinase inhibition (ACVR1): 100
- kinase inhibition (NEK5): 100
- kinase inhibition (ERK3): 95
- kinase inhibition [2]: 64
- kinase inhibition (FAK): 96
- kinase inhibition (IRAK3): 71
- kinase inhibition (PRKD2): 100
- kinase inhibition (EPHB2): 70
- kinase inhibition (HCK): 100
- kinase inhibition (PLK4): 89
- kinase inhibition (STK39): 100
- Concentration (Cruzain): 20 µM
- kinase inhibition (MST3): 98
- kinase inhibition (PIK3CA(H1047Y)): 100
- kinase inhibition (GSK3B): 100
- kinase inhibition (MEK2): 83
- kinase inhibition (MARK2): 100
- kinase inhibition (GSK3A): 100
- kinase inhibition (TAOK2): 91
- kinase inhibition (LATS2): 100
- kinase inhibition (FLT4): 100
- kinase inhibition (CDKL5): 100
- kinase inhibition (TNIK): 75
- percent of control binding remaining (KIT; KIT, 10 µM): 41
- remaining binding at 10 µM (KIT; c-KIT wt, read-out: Kinome scan (% of control at 10 µM)): 41%
- kinase inhibition (EPHB1): 100
- kinase inhibition (MET(Y1235D)): 100
- kinase inhibition (EPHA6): 91
- kinase inhibition (MAP3K2): 85
- kinase inhibition [3]: 90
- kinase inhibition (LOK): 100
- kinase inhibition (PKAC-beta): 95
- kinase inhibition (MKK7): 100
